Measurements published in patent US12565490B2, “Inhibitors of Receptor Interacting Protein Kinase I for the treatment of disease” (Board of Regents, The University of Texas System, priority 2020, dated 2026).

The compounds below were run on human monocytic cell line U937 (assay: Human U937 cellular necroptosis assay). Settings: U-937; U937 cells stimulated with 25 ng/mL human TNFalpha and 25 μM z-VAD-FMK; 22 hr; viability by Cell Titer-Glo 2.0; read-out: hU937 IC50.
Format: cell-based
Method in brief: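 U937 cells (5000/well) driven to necroptosis by 25 ng/mL human TNFalpha plus 25 μM z-VAD-FMK alongside 1:3-diluted compounds, 22 hr at 37° C, 5% CO2. Viability by CellTiter-Glo luminescence; IC50 from four-parameter logistic fit.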
Compound CN1C(=O)[C@@H](NC(=O)c2ncc(Cl)c(-c3cccc(Cl)c3)n2)COc2cc(Cl)cnc21 [Example 102, (S)-5-chloro-N-(8-chloro-5-methyl-4-oxo-2,3,4,5-tetrahydropyrido[3,2-b]-[1,4]oxazepin-3-yl)-4-(3-chlorophenyl)pyrimidine-2-carboxamide] has an IC50 of 12.7 nM. Compound Cc1cnc(C(=O)N[C@H]2COc3ccc(Oc4cnn(C)c4)cc3N(C)C2=O)nc1-c1ccccc1F [Example 159, (S)-4-(2-fluorophenyl)-5-methyl-N-(5-methyl-7-((1-methyl-1H-pyrazol-4-yl)oxy)-4-oxo-2,3,4,5-tetrahydrobenzo[b]-[1,4]oxazepin-3-yl)pyrimidine-2-carboxamide] has an IC50 of 9 nM. Cc1ccc(-c2nc(C(=O)N[C@H]3COc4ccc(N5CC6(CCOCC6)C5)cc4N(C)C3=O)ncc2Cl)cc1F [Example 145, (S)-5-chloro-4-(3-fluoro-4-methylphenyl)-N-(5-methyl-4-oxo-7-(7-oxa-2-azaspiro[3.5]nonan-2-yl)-2,3,4,5-tetrahydrobenzo[b]-[1,4]oxazepin-3-yl)pyrimidine-2-carboxamide] was tested, and the IC50 was 11 nM. CN1C(=O)[C@@H](NC(=O)c2ncc(Cl)c(-c3ccc(F)cc3F)n2)COc2cc(CN3CCn4ncnc4C3)ccc21 [Example 154, (S)-5-chloro-4-(2,4-difluorophenyl)-N-(8-((5,6-dihydro-[1,2,4]triazolo[1,5-a]pyrazin-7(8H)-yl)methyl)-5-methyl-4-oxo-2,3,4,5-tetrahydrobenzo[b]-[1,4]oxazepin-3-yl)pyrimidine-2-carboxamide] gave an IC50 of 32.1 nM. Compound CN1C(=O)[C@@H](NC(=O)c2ncc(F)c(-c3ccc(F)cc3)n2)COc2cc(Cl)cnc21 [Example 91, (S)-N-(8-chloro-5-methyl-4-oxo-2,3,4,5-tetrahydro-pyrido[3,2-b][1,4]oxazepin-3-yl)-5-fluoro-4-(4-fluorophenyl)-pyrimidine-2-carboxamide] has an IC50 of 33.2 nM. For CN1C(=O)[C@@H](NC(=O)c2ncc(Cl)c(-c3ccccc3)n2)COc2cc(Cl)cnc21 [Example 93, (S)-5-chloro-N-(8-chloro-5-methyl-4-oxo-2,3,4,5-tetrahydropyrido[3,2-b]-[1,4]oxazepin-3-yl)-4-phenylpyrimidine-2-carboxamide], the IC50 was 6.23 nM. Work on Cc1cnc(C(=O)N[C@H]2COc3ccc(N4CC5(CCOCC5)C4)cc3N(C)C2=O)nc1-c1ccccc1 [Example 26, (S)-5-methyl-N-(5-methyl-4-oxo-7-(7-oxa-2-azaspiro[3.5]nonan-2-yl)-2,3,4,5-tetrahydrobenzo[b]-[1,4]oxazepin-3-yl)-4-phenyl-pyrimidine-2-carboxamide] yielded an IC50 of 14.6 nM. Cc1cnc(C(=O)N[C@H]2COc3cc(C#N)ccc3N(C)C2=O)nc1C1CCCOC1 (stereo partly drawn) [Example 43, N-((S)-8-cyano-5-methyl-4-oxo-2,3,4,5-tetrahydro-benzo[b][1,4]oxazepin-3-yl)-5-methyl-4-(tetrahydro-2H-pyran-3-yl)pyrimidine-2-carboxamide] was tested, and the IC50 was 154 nM. Cc1cnc(C(=O)N[C@H]2COc3cc(C#N)ccc3N(C)C2=O)nc1N1CCCCC1 [Example 14, (S)-N-(8-cyano-5-methyl-4-oxo-2,3,4,5-tetrahydro-benzo[b][1,4]oxazepin-3-yl)-5-methyl-4-(piperidin-1-yl)-pyrimidine-2-carboxamide] gave an IC50 of 119 nM. With O=C(N[C@H]1COc2cc(F)cnc2NC1=O)c1ncc(Cl)c(-c2ccc(F)cc2F)n1 [Example 167, (S)-5-chloro-4-(2,4-difluorophenyl)-N-(8-fluoro-4-oxo-2,3,4,5-tetrahydropyrido[3,2-b][1,4]oxazepin-3-yl)pyrimidine-2-carboxamide] the IC50 was 464 nM. Compound CN1C(=O)[C@@H](NC(=O)c2ncc(Cl)c(-c3ccc(Cl)cc3)n2)COc2cc(Cl)cnc21 [Example 103, (S)-5-chloro-N-(8-chloro-5-methyl-4-oxo-2,3,4,5-tetrahydropyrido[3,2-b]-[1,4]oxazepin-3-yl)-4-(4-chlorophenyl)pyrimidine-2-carboxamide] has an IC50 of 6.69 nM. Cc1cnc(C(=O)N[C@H]2COc3cc(Cl)cnc3N(C)C2=O)nc1-c1cncnc1 [Example 122, (S)-N-(8-chloro-5-methyl-4-oxo-2,3,4,5-tetrahydro-pyrido[3,2-b][1,4]oxazepin-3-yl)-5-methyl-[4,5′-bipyrimidine]-2-carboxamide] gave an IC50 of 144 nM. Work on CN1C(=O)[C@@H](NC(=O)c2ncc(Cl)c(-c3cncc(F)c3)n2)COc2cc(Cl)cnc21 [Example 109, (S)-5-chloro-N-(8-chloro-5-methyl-4-oxo-2,3,4,5-tetrahydropyrido[3,2-b]-[1,4]oxazepin-3-yl)-4-(5-fluoropyridin-3-yl)pyrimidine-2-carboxamide] yielded an IC50 of 59.2 nM.
